Assay results: patent publication US4515766A, “Labeled phosphonic acid compositions for investigations of in vivo deposits of calcium” (priority 1982, dated 1985)

Experiments:
Toxic effects in rats = type: in vivo; conditions: 0.32 mg/300 gm
Excerpt: (§1) Relative to a 70 kg person, this represents a safety factor of 74.7 and 112 respectively.

Toxic effects in mice = type: in vivo; conditions: 0.032 mg/20 gm
Excerpt: as §1

O=P(O)(O)C(O)(c1ccccc1)P(=O)(O)O [.PHI.PA]
toxic effects observed (Toxic effects in rats): No toxic effects | safety factor (Toxic effects in rats; rat, in vivo, read-out: safety factor relative to a 70 kg person): 74.7 | toxic effects observed (Toxic effects in mice): No toxic effects | safety factor (Toxic effects in mice; mouse, in vivo, read-out: safety factor relative to a 70 kg person): 112
